The results in this text go back to patent US11807693B2 (priority 2014, dated 2023).

A word on the EC50: it is the concentration giving half of the maximal effect. A lower EC50 goes with a more potent agent.

Starred links: 1 amine or outer side, 2 acyl side, 3 side chain; linkers in the order of their positions; H or OH if unused. Non-standard residues stand in square brackets, D forms with d. Residues, ends and D or L forms follow the SMILES beside them. *: point of attachment. dBip = N[C@H](Cc1ccc(-c2ccccc2)cc1)C(=O)O; Oic = O=C(O)[C@@H]1C[C@@H]2CCCC[C@@H]2N1; Phe(4-Cl) = N[C@@H](Cc1ccc(Cl)cc1)C(=O)O; dPhe(4-Cl) = N[C@H](Cc1ccc(Cl)cc1)C(=O)O; Phe(4-I) = N[C@@H](Cc1ccc(I)cc1)C(=O)O; γGlu = O=C(O)[C@H](CCC(=O)[*:2])N[*:1]; 1Nal = N[C@@H](Cc1cccc2ccccc12)C(=O)O; 2Nal = N[C@@H](Cc1ccc2ccccc2c1)C(=O)O; NMehArg = CN[C@@H](CCCCNC(=N)N)C(=O)O; HOOC(CH2)8CO = O=C(O)CCCCCCCCC(=O)*; NMeR = CN[C@@H](CCCNC(=N)N)C(=O)O; Tridecanoyl = CCCCCCCCCCCCC(=O)*; hArg = N=C(N)NCCCC[C@H](N)C(=O)O; Cha = N[C@@H](CC1CCCCC1)C(=O)O; NMeL = CN[C@@H](CC(C)C)C(=O)O; αMeP = C[C@@]1(C(=O)O)CCCN1; Nle = CCCC[C@H](N)C(=O)O; Orn = NCCC[C@H](N)C(=O)O; AEEA = NCCOCCOCC(=O)O; Aib = CC(C)(N)C(=O)O; βAla = NCCC(=O)O A value given as a limit tells only on which side of the number the result lay.

In one test the target is T1, human APJ receptor (Homo sapiens, UniProt P35414).
T1 construct: expressed in transfected cells
T1 sequence (P35414 1-380): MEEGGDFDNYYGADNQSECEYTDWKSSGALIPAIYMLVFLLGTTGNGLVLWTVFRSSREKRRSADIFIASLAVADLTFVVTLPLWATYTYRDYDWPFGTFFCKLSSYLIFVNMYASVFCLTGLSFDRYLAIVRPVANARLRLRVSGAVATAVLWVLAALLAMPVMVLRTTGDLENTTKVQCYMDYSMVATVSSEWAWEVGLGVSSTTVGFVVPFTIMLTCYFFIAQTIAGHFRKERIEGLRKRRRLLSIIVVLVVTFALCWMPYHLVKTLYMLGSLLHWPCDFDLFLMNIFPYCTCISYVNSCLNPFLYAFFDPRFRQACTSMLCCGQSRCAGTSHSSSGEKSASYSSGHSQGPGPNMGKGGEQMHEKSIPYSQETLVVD
Description: [35S] GTPγS assay, human APJ receptor. In kind it is biochemical.
Conditions: not given
Compound `CC(=O)N[C@@H](CCCCNC(=N)N)C(=O)N[C@@H](CCCCNC(=N)N)C(=O)N[C@@H](CCC(N)=O)C(=O)N[C@H](CCCNC(=N)N)C(=O)N1CCC[C@H]1C(=O)N(C)[C@@H](CCCNC(=N)N)C(=O)N[C@@H](CC1CCCCC1)C(=O)N[C@@H](CO)C(=O)N[C@@H](Cc1c[nH]cn1)C(=O)N[C@@H](CCCCN)C(=O)NCC(=O)N1[C@H](C(=O)N[C@@H](Cc2ccc(I)cc2)C(=O)N2CCC[C@H]2C(=O)N[C@H](Cc2ccc(-c3ccccc3)cc2)C(=O)O)C[C@@H]2CCCC[C@@H]21` [compound 22] (Ac-[hArg][hArg]Q[dR]P[NMeR][Cha]SHKG[Oic][Phe(4-I)]P[dBip]-OH) had an EC50 of 1.52 nM.
In the case of `CCCC[C@H](NC(=O)[C@@H]1CCCN1C(=O)CNC(=O)[C@H](CCCCN)NC(=O)[C@H](Cc1c[nH]cn1)NC(=O)[C@H](CO)NC(=O)[C@H](CC1CCCCC1)NC(=O)[C@H](CCCCNC(=N)N)NC(=O)[C@@H]1CCCN1C(=O)[C@H](CCCNC(=N)N)NC(=O)[C@H](CCC(N)=O)NC(=O)[C@H](CCCCNC(=N)N)NC(=O)[C@H](CCCCNC(=N)N)NC(=O)[C@H](Cc1ccccc1)NC(=O)[C@H](CCCN)NC(C)=O)C(=O)N[C@@H](Cc1ccc2ccccc2c1)C(=O)O` [compound 49] (Ac-[Orn]F[hArg][hArg]QRP[hArg][Cha]SHKGP[Nle][2Nal]-OH), the EC50 amounted to 0.159 nM.
Compound `CCCC[C@H](NC(=O)[C@@H]1C[C@@H]2CCCC[C@@H]2N1C(=O)CNC(=O)[C@H](CCCCN)NC(=O)[C@H](Cc1c[nH]cn1)NC(=O)[C@H](CO)NC(=O)[C@H](CC1CCCCC1)NC(=O)[C@H](CCCNC(=N)N)N(C)C(=O)[C@@H]1CCCN1C(=O)[C@H](CCCCNC(=N)N)NC(=O)[C@H](CCC(N)=O)NC(=O)[C@H](CCCCNC(=N)N)NC(=O)[C@H](CCCCNC(=N)N)NC(C)=O)C(=O)N1CCC[C@H]1C(=O)N[C@@H](Cc1ccc(Cl)cc1)C(=O)O` [compound 56] (Ac-[hArg][hArg]Q[hArg]P[NMeR][Cha]SHKG[Oic][Nle]P[Phe(4-Cl)]-OH) yielded an EC50 of 0.176 nM.

Still in this test, the particulars now being: Table 16.
For the compound `CCCCCCCCCCCCC(=O)N[C@@H](CCC(=O)NCCOCCOCC(=O)NCCOCCOCC(=O)N[C@H](CCC(N)=O)C(=O)N[C@@H](CCCCNC(=N)N)C(=O)N1CCC[C@H]1C(=O)N(C)[C@@H](CCCNC(=N)N)C(=O)N[C@@H](CC1CCCCC1)C(=O)N[C@@H](CO)C(=O)N[C@@H](Cc1c[nH]cn1)C(=O)N[C@@H](CCCCN)C(=O)NCCC(=O)N1[C@H](C(=O)N[C@@H](CCCC)C(=O)N2CCC[C@H]2C(=O)N[C@H](Cc2ccc(Cl)cc2)C(=O)O)C[C@@H]2CCCC[C@@H]21)C(=O)O` [compound 294] ({Tridecanoyl-γGlu-AEEA-AEEA}-[dQ][hArg]P[NMeR][Cha]SHK[βAla][Oic][Nle]P[dPhe(4-Cl)]-OH), the EC50 was above 4170 nM.
`CCCCCCCCCCCCC(=O)N[C@@H](CCC(=O)NCCOCCOCC(=O)NCCOCCOCC(=O)N[C@@H](CCCNC(=N)N)C(=O)N[C@@H](CCC(N)=O)C(=O)N[C@@H](CCCNC(=N)N)C(=O)N1CCC[C@H]1C(=O)N[C@@H](CCCCN)C(=O)N[C@@H](CC1CCCCC1)C(=O)N[C@@H](C)C(=O)N[C@@H](C)C(=O)N[C@@H](CCCC)C(=O)NCC(=O)N1[C@H](C(=O)N[C@@H](CCCC)C(=O)N2CCC[C@H]2C(=O)N[C@@H](Cc2ccc(Cl)cc2)C(=O)O)C[C@@H]2CCCC[C@@H]21)C(=O)O` [compound 346] ({Tridecanoyl-γGlu-AEEA-AEEA}-RQRPK[Cha]AA[Nle]G[Oic][Nle]P[Phe(4-Cl)]-OH) registered an EC50 of 2.77 nM.
For the compound `CCCCCCCCCCCCC(=O)N[C@@H](CCC(=O)NCCOCCOCC(=O)NCCOCCOCC(=O)N[C@H](CCC(N)=O)C(=O)N[C@@H](CCCCNC(=N)N)C(=O)N1CCC[C@H]1C(=O)N[C@H](CCCNC(=N)N)C(=O)N[C@@H](CC1CCCCC1)C(=O)N[C@@H](CO)C(=O)N[C@@H](Cc1c[nH]cn1)C(=O)N[C@@H](CCCCN)C(=O)NCC(=O)N1[C@H](C(=O)N[C@@H](CCCC)C(=O)N2CCC[C@H]2C(=O)N[C@@H](Cc2cccc3ccccc23)C(=O)O)C[C@@H]2CCCC[C@@H]21)C(=O)O` [compound 367] ({Tridecanoyl-γGlu-AEEA-AEEA}-[dQ][hArg]P[dR][Cha]SHKG[Oic][Nle]P[1Nal]-OH), the EC50 was found to be 26.4 nM.
In turn, `CCCCCCCCCCCCC(=O)N[C@@H](CCC(=O)NCCOCCOCC(=O)NCCOCCOCC(=O)N[C@@H](CCC(N)=O)C(=O)N[C@@H](CCCNC(=N)N)C(=O)N1CCC[C@H]1C(=O)N(C)[C@@H](CCCNC(=N)N)C(=O)N[C@@H](CC1CCCCC1)C(=O)N[C@@H](CO)C(=O)N[C@@H](Cc1c[nH]cn1)C(=O)N[C@@H](CCCCN)C(=O)NCC(=O)N1[C@H](C(=O)N[C@@H](CCCC)C(=O)N2CCC[C@H]2C(=O)N[C@H](Cc2ccc(Cl)cc2)C(=O)O)C[C@@H]2CCCC[C@@H]21)C(=O)O` [compound 381] ({Tridecanoyl-γGlu-AEEA-AEEA}-QRP[NMeR][Cha]SHKG[Oic][Nle]P[dPhe(4-Cl)]-OH) had an EC50 of 6.11 nM.
The compound `CCCCCCCCCCCCC(=O)N[C@@H](CCC(=O)NCCOCCOCC(=O)NCCOCCOCC(=O)N[C@@H](CCC(N)=O)C(=O)N[C@@H](CCCCNC(=N)N)C(=O)N1CCC[C@H]1C(=O)N(C)[C@@H](CCCNC(=N)N)C(=O)N[C@@H](CC1CCCCC1)C(=O)N[C@@H](CO)C(=O)N[C@@H](Cc1c[nH]cn1)C(=O)N[C@@H](CCCCN)C(=O)NCC(=O)N1CCC[C@H]1C(=O)N[C@@H](CCCC)C(=O)N1CCC[C@H]1C(=O)N[C@@H](Cc1ccc(Cl)cc1)C(=O)O)C(=O)O` [compound 408] ({Tridecanoyl-γGlu-AEEA-AEEA}-Q[hArg]P[NMeR][Cha]SHKGP[Nle]P[Phe(4-Cl)]-OH) came in with an EC50 of 0.0768 nM.
As to `CCCCCCCCCCCCC(=O)N[C@@H](CCC(=O)NCCOCCOCC(=O)NCCOCCOCC(=O)N[C@@H](CCC(N)=O)C(=O)N[C@@H](CCCNC(=N)N)C(=O)N1CCC[C@H]1C(=O)N(C)[C@@H](CCCNC(=N)N)C(=O)N[C@@H](CC1CCCCC1)C(=O)N[C@@H](CO)C(=O)N[C@@H](Cc1c[nH]cn1)C(=O)N[C@@H](CCCCN)C(=O)NCC(=O)N1[C@H](C(=O)N[C@@H](CCCC)C(=O)N[C@@H](Cc2ccc(Cl)cc2)C(=O)O)C[C@@H]2CCCC[C@@H]21)C(=O)O` [compound 409] ({Tridecanoyl-γGlu-AEEA-AEEA}-QRP[NMeR][Cha]SHKG[Oic][Nle][Phe(4-Cl)]-OH), the EC50 worked out at 1 nM.

The test is the same for the next values; noted with them: human APJ receptor.
`CCCC[C@H](NC(=O)[C@@H]1CCCN1C(=O)CNC(=O)[C@H](CCCCN)NC(=O)[C@H](Cc1c[nH]cn1)NC(=O)[C@H](CO)NC(=O)[C@H](CC(C)C)NC(=O)[C@H](CCCCNC(=N)N)N(C)C(=O)[C@H](CCCNC(=N)N)NC(=O)[C@H](CCC(N)=O)NC(C)=O)C(=O)N1CCC[C@H]1C(=O)N[C@@H](Cc1ccc(Cl)cc1)C(=O)O` [compound 73] (Ac-QR[NMehArg]LSHKGP[Nle]P[Phe(4-Cl)]-OH) registered an EC50 of 1.81 nM.
Still for that read-out and setting: then `CCCC[C@H](NC(=O)[C@]1(C)CCCN1C(=O)CNC(=O)[C@H](CCCCN)NC(=O)[C@H](Cc1c[nH]cn1)NC(=O)[C@H](CO)NC(=O)[C@H](CC1CCCCC1)NC(=O)[C@H](CCCNC(=N)N)N(C)C(=O)[C@@H]1CCCN1C(=O)[C@H](CCCNC(=N)N)NC(=O)[C@@H](CCC(N)=O)NC(C)=O)C(=O)NC(C)(C)C(=O)N[C@@H](Cc1ccc(Cl)cc1)C(=O)O` [compound 93] (Ac-[dQ]RP[NMeR][Cha]SHKG[αMeP][Nle][Aib][Phe(4-Cl)]-OH), with 0.229 nM; and `CC(C)C[C@@H](C(=O)N[C@@H](CO)C(=O)N[C@@H](Cc1c[nH]cn1)C(=O)N[C@@H](CCCCN)C(=O)NCC(=O)N1[C@H](C(=O)N[C@@H](Cc2ccc(I)cc2)C(=O)N2CCC[C@H]2C(=O)N[C@H](Cc2ccc(-c3ccccc3)cc2)C(=O)O)C[C@@H]2CCCC[C@@H]21)N(C)C(=O)[C@@H](CCCNC(=N)N)NC(=O)[C@@H]1CCCN1C(=O)[C@H](CCCCNC(=N)N)NC(=O)[C@H](CCC(N)=O)NC(=O)COCCOCCNC(=O)COCCOCCNC(=O)CC[C@H](NC(=O)CCCCCCCCC(=O)O)C(=O)O` [compound 288] ({HOOC(CH2)8CO-γGlu-AEEA-AEEA}-Q[hArg]P[dR][NMeL]SHKG[Oic][Phe(4-I)]P[dBip]-OH), with 38.5 nM.
`CC(C)C[C@@H](C(=O)N[C@@H](CO)C(=O)N[C@@H](Cc1c[nH]cn1)C(=O)N[C@@H](CCCCN)C(=O)NCC(=O)N1[C@H](C(=O)N[C@@H](Cc2ccc(I)cc2)C(=O)N2CCC[C@H]2C(=O)N[C@H](Cc2ccc(-c3ccccc3)cc2)C(=O)O)C[C@@H]2CCCC[C@@H]21)N(C)C(=O)[C@@H](CCCNC(=N)N)NC(=O)[C@@H]1CCCN1C(=O)[C@H](CCCCNC(=N)N)NC(=O)[C@H](CCC(N)=O)NC(=O)[C@@H](CCCNC(=N)N)NC(=O)[C@H](CCCCNC(=N)N)NC(=O)COCCOCCNC(=O)COCCOCCNC(=O)CC[C@H](NC(=O)CCCCCCCCC(=O)O)C(=O)O` [compound 291] gave an EC50 of 3.38 nM.
In turn, `CCCCCCCCCCCCC(=O)N[C@@H](CCC(=O)NCCOCCOCC(=O)NCCOCCOCC(=O)N[C@@H](CCCCNC(=N)N)C(=O)N[C@@H](CCCC)C(=O)N[C@@H](CCC(N)=O)C(=O)N[C@@H](CCCCNC(=N)N)C(=O)N1CCC[C@H]1C(=O)N[C@H](CCCNC(=N)N)C(=O)N(C)[C@@H](CC(C)C)C(=O)N[C@@H](C)C(=O)N[C@@H](Cc1c[nH]cn1)C(=O)N[C@@H](CCCCN)C(=O)NCC(=O)N1[C@H](C(=O)N[C@@H](Cc2ccc(I)cc2)C(=O)N2CCC[C@H]2C(=O)N[C@H](Cc2ccc(-c3ccccc3)cc2)C(=O)O)C[C@@H]2CCCC[C@@H]21)C(=O)O` [compound 321] ({Tridecanoyl-γGlu-AEEA-AEEA}-[hArg][Nle]Q[hArg]P[dR][NMeL]AHKG[Oic][Phe(4-I)]P[dBip]-OH) had an EC50 of 17.9 nM.
